From US20210379153A1, “COMBINATION THERAPIES COMPRISING SIRP ALPHA-BASED CHIMERIC PROTEINS” (Shattuck Labs, Inc., priority 2018, published 2021)
“Also recorded” adds a separate entry of the source.

Columns and labels:
CT26 tumor = CT26 tumor model, order of administration with anti-CTLA-4 or anti-PD-1 (Example 10); type: in vivo, mice
Toledo lymphoma cells = assay: Phagocytosis of Toledo lymphoma cells by human monocyte derived macrophages (flow cytometry); type: cell-based; conditions: combination with rituximab
Description: (§1) FIG. 8D: Macrophage:Toledo lymphoma co-cultures were harvested 2 hours into phagocytosis assays in the presence of rituximab ([…]), SIRPα-Fc-CD40L ([…]), or the combination of both agents. Macrophages were isolated by CD11b+ FACS, RNA was prepared, cDNA synthesized, and gene expression (IFNa1, IFNb1, CD80, and CD86) assessed by qRT-PCR. Fold change was calculated using DDCT and values obtained from the housekeeping gene ACTB, and the corresponding values from untreated samples. […] After 2 hours, co-cultures were isolated from tissue culture vessels and were stained with a fluorescently conjugated CD11b antibody to discriminate macrophages. Cells were then assessed by flow cytometry for the co-localization of fluorescent signal from both cells types. Identical assays were set up where macrophages were pre-incubated for 1 hour with 20 μg/mL of a commercially available Fc block cocktail or with 20 μg/mL of a CD40 blocking antibody or with 5 μg/mL of a calreticulin blocking peptide. FIG. 8G: RAW 264.7-Lucia ISG cells were cultured with A20 lymphoma cells in the presence of 50 mg/mL of mSIRPα-Fc-CD40L, recombinant Fc-mCD40L, mSIRPα-Fc, or their combination, 1 mg/mL anti-mCD20, or the combination of mSIRPα-Fc-CD40L and anti-mCD20. After 24-hours type I interferon induced luminescence was assessed using a luminometer. The maximum luminescence (RLU) from each experiment was set to 1, and all other samples were normalized accordingly. Values from repeat experiments are shown.
In contrast, phagocytosis-stimulating activity of the combination was not impacted when macrophages were pre-treated with a CD40-blocking antibody (“CD40 Block”).

[1] = system: MCF7 (low Her2-expressing breast cancer cell line); assay: Macrophage engulfment of MCF7 cells; type: cell-based, human; conditions: monotherapy
[2] = system: IRF-inducible ISG reporter in RAW264.7 cells; assay: RAW264.7-ISG interferon reporter cells co-cultured with A20 lymphoma cells; type: cell-based, mouse; conditions: monotherapy; 50 mg/mL proteins, 1 mg/mL anti-mCD20; 24 hours
Description: as §1, with “Identical assays were set up where macrophages were pre-incubated for 1 hour with 20 μg/mL of a commercially available Fc block cocktail or with 20 μg/mL of a CD40 blocking antibody or with 5 μg/mL of a calreticulin blocking peptide. FIG. 8G: RAW 264.7-Lucia ISG cells were cultured with A20 lymphoma cells in the presence of 50 mg/mL of mSIRPα-Fc-CD40L, recombinant Fc-mCD40L, mSIRPα-Fc, or their combination, 1 mg/mL anti-mCD20, or the combination of mSIRPα-Fc-CD40L and anti-mCD20.” left out, “Values from repeat experiments are shown.” left out
Additionally, a macrophage reporter system was used to detect activation. […] After 24 hours, culture supernatant was collected and assessed for luciferase activity, which would indicate activation of a type I interferon response in the RAW-ISG reporter cells. […]

[3] = system: A431 (high EGFR-expressing skin cancer cell line); assay: Macrophage engulfment of A431 cells; type: cell-based, human; conditions: combination with anti-EGFR antibody (cetuximab); vs low EGFR-expressing tumor cells
[4] = system: K562 (low EGFR-expressing CML cell line); assay: Macrophage engulfment of K562 cells; type: cell-based, human
splenic dendritic cells = assay: In vivo splenic dendritic cell activation; set-up: species or system mice; conditions: mouse
Description: For each panel, the samples are (left to right): untreated, sheep RBCs, αCD47 (MIAP301), αSIRPα (P84), mSIRPα-Fc-CD40L, mSIRPα-Fc-CD40L (24 Hrs), and αCD47 (MIAP301) (24 hrs). FIG. 9B is a quantitation of in vivo dendritic cell activation corresponding to FIG. 9A. Shown is the absolute percent of CD4+ and CD8+ dendritic cells; also gated on CD11c and DC1R2. In FIG. 9B, for each panel, the samples are (left to right): untreated, sheep RBCs, αCD47 (MIAP301), αSIRPα (P84), SIRPα-Fc-CD40L (150 μg), SIRPα-Fc-CD40L (300 μg), SIRPα-Fc-CD40L (300 μg) (24 Hrs), and αCD47 (MIAP301) (24 hrs).
An in vivo assay to examine SIRPα/CD47 function in mice was describe in Yi et al., “Splenic Dendritic Cells Survey Red Blood Cells for Missing Self-CD47 to Trigger Adaptive Immune Responses. Immunity. 2015; 43(4):764-75) (the contents of which is incorporated by reference in its entirety). This assay detects the activation status of splenic dendritic cells in response to SIRPα/CD47 inhibitors or to infused sheep red blood cells (RBC).
After 6 or 24 hours, mice were euthanized and their spleens excised, dissociated, and assessed by flow cytometry for populations of activated CD4+ dendritic cells (DCs) (FIG. 9A, left panel) or CD8+ dendritic cells (FIG. 9A, right panel); both populations of dendritic cells were also positive for MHC II (I-Ab), CD11c, and DC1R2.

Raji cells = assay: In vitro phagocytosis of Raji cells by human macrophages; type: cell-based
Text: To this end, in vitro tumor cell phagocytosis assays were established to determine whether SIRPα-Fc-CD40L enhanced macrophage-mediated phagocytosis of various tumor cell lines both alone and in combination with anti-CD20 antibodies.
Initially, a variety of CD20+ lymphoma (Toledo, Raji, and Ramos) cell lines were co-cultured with human monocyte-derived macrophages to assay the amount of phagocytosis promoted by the SIRPα(CD172a)-Fc-CD40L chimeric protein in the presence or absence of an anti-CD20 antibody.
Such synergistic effect was unexpected.
These experiments used an in vitro phagocytosis assay with human donor macrophages and several human tumor cell lines (e.g., Raji cells, a human Burkitt lymphoma tumor cell line), to test whether SIRPα-Fc-CD40L's blockade of the tumor cell antigen CD47 (“don't eat me signal”) could stimulate phagocytosis, and potentially synergize with the anti-CD20 antibody, Rituximab. FIG. 10A is a cartoon illustrating steps used in this assay.
Co-cultures of tagged Raji cells and macrophages were treated with a variety of chimeric protein and antibody combinations, including control IgGs with an anti-CD20 antibody (Rituximab), an anti-CD47 antibody (CC9, Celgene), the SIRPα(CD172a)-Fc-CD40L chimeric protein, and/or pembrolizumab (an anti-PD-1 antibody; […]/MK 3475, Merck). […] Such synergistic effect was unexpected.

SIRPα-Fc-CD40L: generic name of the SIRPαECD-Fc-CD40LECD chimeric protein; human or murine version according to the experiment
treatment outcome (tumor size, survival) (CT26 tumor; anti-CTLA-4 antibody administered before the chimeric protein): greatest treatment outcome
treatment outcome (tumor size, survival) (CT26 tumor; anti-PD-1 antibody administered with the chimeric protein): greatest treatment outcome
treatment outcome / tumor control (CT26 tumor; chimeric protein administered before or after the anti-PD-1 antibody): less great treatment outcome
treatment outcome / tumor control (CT26 tumor; chimeric protein administered before the anti-CTLA-4 antibody): less great treatment outcome
phagocytosis-stimulating activity (Toledo lymphoma cells; CALR Block (calreticulin blocking peptide)): unable to reduce
phagocytosis-stimulating activity (Toledo lymphoma cells; CD40 Block): not impacted
phagocytosis-stimulating activity (Toledo lymphoma cells; Fc Block): partially inhibited
phagocytosis-stimulating activity (Toledo lymphoma cells; calreticulin blocking peptide and Fc receptor block together): greatly reduced
phagocytosis [1]: demonstrated monotherapy activity
interferon gene-driven luciferase activity (type I IFN response) [2]: stimulates an increase in interferon gene-driven luciferase activity
macrophage engulfment of tumor cells [3]: more effective
phagocytic activity ([4]; combination with cetuximab): no phagocytic activity
phagocytic activity ([4]; monotherapy): no phagocytic activity
proportion of overall splenic DCs vs antibody treated groups (splenic dendritic cells): higher proportion of overall splenic DCs
synergy in phagocytosis with anti-CD20 antibody (Raji cells; Fc receptors on the macrophages pre-blocked): synergy was lost
phagocytosis activity by flow cytometry (Raji cells; combination with an anti-CD20 antibody, among treatment groups): greatest phagocytosis activity
macrophage engulfment (phagocytosis) of tumor cells (Raji cells; combination with anti-CD20 antibody (Rituximab), listed as SIRPα(CD172a)-Fc-CD40L): most effective; also recorded: effective
rate of tumor cells engulfed by macrophages (phagocytosis index) (Raji cells; combination with anti-CD20 antibody vs chimeric protein-alone and antibody-alone treatments): greater than the sum
stimulation of phagocytosis (Raji cells; combination with anti-CD20 antibody, CD40 pre-blocked): remained the same
